Data on eleven compounds can be found in ChEMBL document CHEMBL3271985, “Partition coefficients and surface areas of some alkylbenzenes” (J Med Chem, 1976).

The data set can be described thus: Octanol-water partition coefficient, log P of the compound.
`c1ccc2c(c1)CCCC2` displayed a logP of 3.52.

Take `c1ccc(C2CCCC2)cc1`: the logP amounted to 4.27.

As for `c1ccc(C2CCCCC2)cc1`, the logP worked out at 4.64.

Consider `c1ccc(C23CC4CC(CC(C4)C2)C3)cc1`, for which the log partition coefficient (logP) amounted to 5.43.

In turn, `c1cc2ccc1CCc1ccc(cc1)CC2` yielded a logP of 2.33.

As for `c1ccc2c(c1)CCC2`, the logP is 3.33.

In turn, `CC(C)c1ccccc1` [ISOPROPYLBENZENE] gave a logP of 3.66.

Compound `Cc1cccc(C)c1` [M-XYLENE] registered a logP of 3.2.

Turning to `Cc1ccccc1C` [O-XYLENE], the log partition coefficient (logP) was 3.12.

Compound `Cc1ccc(C)cc1` [P-XYLENE] came in with a logP of 3.15.

In the case of `CC(C)(C)c1ccccc1` [tert-Butylbenzene], the logP turned out to be 4.11.

By logP is commonly meant the decadic logarithm of the partition coefficient of the neutral form, usually between octanol and water. High values mean higher lipophilicity, low ones lower lipophilicity.
